Results taken from patent US12077503B2, “Substituted cyclic amides and their use as herbicides” (FMC CORPORATION, priority 2015, dated 2024).

Legend:
Type in all cases: in vivo
[1] = tested on: barnyardgrass (Echinochloa crus-galli); test: Test G Pre-Emergence Protocol; settings: Echinochloa crus-galli, pre-emergence, 312 h, evaluated after 13 days
Procedure, shortened: (§1)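 Visual injury (0–100) at day 13 after a single pre-emergence spray. Rates: 15.625, 62.5, 250 g/ha in acetone–water 50:50 with 0.5% Tween 20. Growth conditions: 24/16° C, 14 h light, 65% humidity.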

[2] = tested on: giant foxtail (Setaria faberi); test: Test G Pre-Emergence Protocol; settings: Setaria faberi, pre-emergence, 312 h, evaluated after 13 days
Procedure, shortened: as §1

[3] = tested on: ivy-leaved morning glory (Ipomoea hederacea); test: Test G Pre-Emergence Protocol; settings: Ipomoea, pre-emergence, 312 h, evaluated after 13 days
Procedure, shortened: as §1

corn (Zea mays) [4] = test: Test G Pre-Emergence Protocol; settings: Zea mays, pre-emergence, 312 h, evaluated after 13 days
Procedure, shortened: as §1

[5] = tested on: velvetleaf (Abutilon theophrasti); test: Test G Pre-Emergence Protocol; settings: Abutilon theophrasti, pre-emergence, 312 h, evaluated after 13 days
Procedure, shortened: as §1

[6] = tested on: redroot pigweed (Amaranthus retroflexus); test: Test G Pre-Emergence Protocol; settings: Amaranthus retroflexus, pre-emergence, 312 h, evaluated after 13 days
Procedure, shortened: as §1

[7] = tested on: barnyardgrass (Echinochloa crus-galli); test: Test G Post-Emergence Protocol; settings: Echinochloa crus-galli, post-emergence, 312 h
Procedure, shortened: (§2)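 Seedlings grown 8 days in soil in a glasshouse (24/16 °C day/night, 14 h light, 65% humidity) were sprayed post-emergence with compound in acetone/water 50:50 plus 0.5% Tween 20 at 15.625, 62.5 or 250 g/ha. Damage was scored after 13 days on a 0–100 scale (100 = total damage).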

[8] = tested on: giant foxtail (Setaria faberi); test: Test G Post-Emergence Protocol; settings: Setaria faberi, post-emergence, 312 h
Procedure, shortened: as §2

[9] = tested on: ivy-leaved morning glory (Ipomoea hederacea); test: Test G Post-Emergence Protocol; settings: Ipomoea, post-emergence, 312 h
Procedure, shortened: as §2

corn (Zea mays) [10] = test: Test G Post-Emergence Protocol; settings: Zea mays, post-emergence, 312 h
Procedure, shortened: as §2

[11] = tested on: velvetleaf (Abutilon theophrasti); test: Test G Post-Emergence Protocol; settings: Abutilon theophrasti, post-emergence, 312 h
Procedure, shortened: as §2

[12] = tested on: redroot pigweed (Amaranthus retroflexus); test: Test G Post-Emergence Protocol; settings: Amaranthus retroflexus, post-emergence, 312 h
Procedure, shortened: as §2

CN1C[C@@H](c2ccc(C(F)(F)F)cc2)[C@H](C(=O)Nc2cc(C(F)(F)F)[nH]n2)C1=O (racemic) [Compound 1530]
0%: pest or weed control at 15.625 g/ha ([1]; 15.625 g ai/ha, read-out: Barnyard grass damage rating (100=total damage to plant; 0=no damage to plant)) | pest or weed control at 62.5 g/ha ([1]; 62.5 g ai/ha, 100=total damage to plant, 0=no damage to plant, read-out: plant damage rating, Barnyardgrass) | pest or weed control at 250 g/ha ([1]; 250 g ai/ha, read-out: Barnyardgrass damage rating (100=total damage to plant; 0=no damage to plant)) | pest or weed control at 15.625 g/ha ([2]; 15.625 g ai/ha, read-out: Foxtail, Giant damage rating (100=total damage to plant; 0=no damage to plant)) | pest or weed control at 62.5 g/ha ([2]; 62.5 g ai/ha, 100=total damage to plant, 0=no damage to plant, read-out: plant damage rating, Foxtail, Giant) | pest or weed control at 250 g/ha ([2]; 250 g ai/ha, read-out: Foxtail, Giant damage rating (100=total damage to plant; 0=no damage to plant)) | pest or weed control at 15.625 g/ha ([3]; 15.625 g ai/ha, read-out: Morning-glory, Ivy-leaved damage rating (100=total damage to plant; 0=no damage to plant)) | pest or weed control at 62.5 g/ha ([3]; 62.5 g ai/ha, 100=total damage to plant, 0=no damage to plant, read-out: plant damage rating, Morningglory, Ivy-leaved) | pest or weed control at 250 g/ha ([3]; 250 g ai/ha, read-out: Morningglory, Ivy-leaved damage rating (100=total damage to plant; 0=no damage to plant)) | plant injury at 15.625 g/ha (corn (Zea mays) [4]; 15.625 g ai/ha, read-out: Corn damage rating (100=total damage to plant; 0=no damage to plant)) | plant injury at 62.5 g/ha (corn (Zea mays) [4]; 62.5 g ai/ha, 100=total damage to plant, 0=no damage to plant, read-out: plant damage rating, Corn) | plant injury at 250 g/ha (corn (Zea mays) [4]; 250 g ai/ha, read-out: Corn damage rating (100=total damage to plant; 0=no damage to plant)) | pest or weed control at 15.625 g/ha ([5]; 15.625 g ai/ha, read-out: Velvetleaf damage rating (100=total damage to plant; 0=no damage to plant)) | pest or weed control at 62.5 g/ha ([5]; 62.5 g ai/ha, 100=total damage to plant, 0=no damage to plant, read-out: plant damage rating, Velvetleaf) | pest or weed control at 250 g/ha ([5]; 250 g ai/ha, read-out: Velvetleaf damage rating (100=total damage to plant; 0=no damage to plant)) | pest or weed control at 15.625 g/ha ([6]; 15.625 g ai/ha, read-out: Pigweed, Redroot damage rating (100=total damage to plant; 0=no damage to plant)) | pest or weed control at 62.5 g/ha ([6]; 62.5 g ai/ha, 100=total damage to plant, 0=no damage to plant, read-out: plant damage rating, Pigweed, Redroot) | pest or weed control at 250 g/ha ([6]; 250 g ai/ha, read-out: Pigweed, Redroot damage rating (100=total damage to plant; 0=no damage to plant)) | pest or weed control at 15.625 g/ha ([7]; 15.625 g ai/ha, evaluated after 13 days (100=total damage to plant; 0=no damage to plant), read-out: Barnyardgrass damage rating) | pest or weed control at 62.5 g/ha ([7]; 62.5 g ai/ha, evaluated after 13 days, read-out: Barnyardgrass damage rating (100=total damage to plant; 0=no damage to plant)) | pest or weed control at 250 g/ha ([7]; 250 g ai/ha, evaluated after 13 days, read-out: damage to plant, Barnyardgrass (100=total damage to plant; 0=no damage to plant)) | pest or weed control at 15.625 g/ha ([8]; 15.625 g ai/ha, evaluated after 13 days (100=total damage to plant; 0=no damage to plant), read-out: Foxtail, Giant damage rating) | pest or weed control at 62.5 g/ha ([8]; 62.5 g ai/ha, evaluated after 13 days, read-out: Foxtail, Giant damage rating (100=total damage to plant; 0=no damage to plant)) | pest or weed control at 250 g/ha ([8]; 250 g ai/ha, evaluated after 13 days, read-out: damage to plant, Foxtail, Giant (100=total damage to plant; 0=no damage to plant)) | pest or weed control at 15.625 g/ha ([9]; 15.625 g ai/ha, evaluated after 13 days (100=total damage to plant; 0=no damage to plant), read-out: Morningglory, Ivy-leaved damage rating) | pest or weed control at 62.5 g/ha ([9]; 62.5 g ai/ha, evaluated after 13 days, read-out: Morningglory, Ivy-leaved damage rating (100=total damage to plant; 0=no damage to plant)) | pest or weed control at 250 g/ha ([9]; 250 g ai/ha, evaluated after 13 days, read-out: damage to plant, Morningglory, Ivy-leaved (100=total damage to plant; 0=no damage to plant)) | plant injury at 15.625 g/ha (corn (Zea mays) [10]; 15.625 g ai/ha, evaluated after 13 days (100=total damage to plant; 0=no damage to plant), read-out: Corn damage rating) | plant injury at 62.5 g/ha (corn (Zea mays) [10]; 62.5 g ai/ha, evaluated after 13 days, read-out: Corn damage rating (100=total damage to plant; 0=no damage to plant)) | plant injury at 250 g/ha (corn (Zea mays) [10]; 250 g ai/ha, evaluated after 13 days, read-out: damage to plant, Corn (100=total damage to plant; 0=no damage to plant)) | pest or weed control at 15.625 g/ha ([11]; 15.625 g ai/ha, evaluated after 13 days (100=total damage to plant; 0=no damage to plant), read-out: Velvetleaf damage rating) | pest or weed control at 62.5 g/ha ([11]; 62.5 g ai/ha, evaluated after 13 days, read-out: Velvetleaf damage rating (100=total damage to plant; 0=no damage to plant)) | pest or weed control at 250 g/ha ([11]; 250 g ai/ha, evaluated after 13 days, read-out: damage to plant, Velvetleaf (100=total damage to plant; 0=no damage to plant)) | pest or weed control at 15.625 g/ha ([12]; 15.625 g ai/ha, evaluated after 13 days (100=total damage to plant; 0=no damage to plant), read-out: Pigweed, Redroot damage rating) | pest or weed control at 62.5 g/ha ([12]; 62.5 g ai/ha, evaluated after 13 days, read-out: Pigweed, Redroot damage rating (100=total damage to plant; 0=no damage to plant)) | pest or weed control at 250 g/ha ([12]; 250 g ai/ha, evaluated after 13 days, read-out: damage to plant, Pigweed, Redroot (100=total damage to plant; 0=no damage to plant))
